How the values were obtained:
[1] = biological target: wild-type EZH2 (PRC2 enzyme) (Homo sapiens (Human), UniProt Q15910); test: PRC2 enzyme assay on peptide substrate, wild-type EZH2 (H3K27me0 peptide, 3H-SAM Flashplate); type: biochemical; conditions: wild-type PRC2 4 nM, read-out: WT EZH2 IC50
Method: (§1) Human PRC2 enzymes were purified as 4-component enzyme complexes co-expressed in Spodoptera frugiperda (sf9) cells using a baculovirus expression system. […] The EED subunit contained an N-terminal FLAG tag that was used to purify the entire 4-component complex from sf9 cell lysates.
(§2) The assays were all performed in a buffer consisting of 20 mM bicine (pH=7.6), 0.5 mM DTT, 0.005% BSG and 0.002% Tween20, prepared on the day of use. […] DMSO (1 μL) was added to columns 11, 12, 23, 24, rows A-H for the maximum signal control, and SAH, a known product and inhibitor of PRC2 (1 μL) was added to columns 11, 12, 23, 24, rows I-P for the minimum signal control. A cocktail (40 μL) containing the wild-type PRC2 enzyme and H3K27me0 peptide or any of the Y641 mutant enzymes and H3K27me2 peptide was added by Multidrop Combi (Thermo). The compounds were allowed to incubate with PRC2 for 30 min at 25° C., then a cocktail (10 μL) containing a mixture of non-radioactive and ^3H-SAM was added to initiate the reaction (final volume=51 μL). […] The assays were stopped by the addition of non-radioactive SAM (10 μL) to a final concentration of 600 μM, which dilutes the ^3H-SAM to a level where its incorporation into the peptide substrate is no longer detectable. 50 of the reaction in the 384-well polypropylene plate was then transferred to a 384-well Flashplate and the biotinylated peptides were allowed to bind to the streptavidin surface for at least 1 h before being washed three times with 0.1% Tween20 in a Biotek ELx405 plate washer. The plates were then read in a PerkinElmer TopCount platereader to measure the quantity of ^3H-labeled peptide bound to the Flashplate surface, measured as disintegrations per minute (dpm) or alternatively, referred to as counts per minute (cpm).

WSU-DLCL2 cells = test: Cell proliferation analysis, WSU-DLCL2 (Cell Titer Glo); type: cell-based; conditions: Homo sapiens, WSUDLCL2, 144 h, 6 days incubation, ATP readout
From the text: Cell Proliferation Analysis
WSU-DLCL2 suspension cells were purchased from DSMZ (German Collection of Microorganisms and Cell Cultures, Braunschweig, Germany), RPMI/Glutamax Medium, Penicillin-Streptomycin, Heat Inactivated Fetal Bovine Serum were purchased from Life Technologies, Grand Island, N.Y., USA, V-bottom polypropylene 384-well plates were purchased from Greiner Bio-One, Monroe, N.C., USA. Cell culture 384-well white opaque plates were purchased from Perkin Elmer, Waltham, Mass., USA. Cell-Titer Glo® was purchased from Promega Corporation, Madison, Wis., USA. SpectraMax M5 plate reader was purchased from Molecular Devices LLC, Sunnyvale, Calif., USA.
WSU-DLCL2 suspension cells were maintained in growth medium (RPMI 1640 supplemented with 10% v/v heat inactivated fetal bovine serum and cultured at 37° C. under 5% CO2. Under assay conditions, cells were incubated in Assay Medium (RPMI 1640 supplemented with 20% v/v heat inactivated fetal bovine serum and 100 units/mL penicillin-streptomycin) at 37° C. under 5% CO2.
For the assessment of the effect of compounds on the proliferation of the WSU-DLCL2 cell line, exponentially growing cells were plated in 384-well white opaque plates at a density of 1250 cell/ml in a final volume of 50 μl of assay medium. A compound source plate was prepared by performing triplicate nine-point 3-fold serial dilutions in DMSO, beginning at 10 mM (final top concentration of compound in the assay was 20 μM and the DMSO was 0.2%). A 100 nL aliquot from the compound stock plate was added to its respective well in the cell plate. […] After addition of compounds, assay plates were incubated for 6 days at 37° C., 5% CO2, relative humidity >90% for 6 days. Cell viability was measured by quantization of ATP present in the cell cultures, adding 35 μl of Cell Titer Glo® reagent to the cell plates. Luminescence was read in the SpectraMax M5. The concentration inhibiting cell viability by 50% was determined using a 4-parametric fit of the normalized dose response curves.

[2] = biological target: EZH2 Y641F mutant (PRC2 enzyme) (Homo sapiens (Human), UniProt Q15910, Y641F); test: PRC2 enzyme assay on peptide substrate, EZH2 Y641F mutant (H3K27me2 peptide, 3H-SAM Flashplate); type: biochemical; conditions: Y641F mutant PRC2 4 nM
Chain of EZH2 Y641F mutant (PRC2 enzyme) (Q15910 whole entry Y641F): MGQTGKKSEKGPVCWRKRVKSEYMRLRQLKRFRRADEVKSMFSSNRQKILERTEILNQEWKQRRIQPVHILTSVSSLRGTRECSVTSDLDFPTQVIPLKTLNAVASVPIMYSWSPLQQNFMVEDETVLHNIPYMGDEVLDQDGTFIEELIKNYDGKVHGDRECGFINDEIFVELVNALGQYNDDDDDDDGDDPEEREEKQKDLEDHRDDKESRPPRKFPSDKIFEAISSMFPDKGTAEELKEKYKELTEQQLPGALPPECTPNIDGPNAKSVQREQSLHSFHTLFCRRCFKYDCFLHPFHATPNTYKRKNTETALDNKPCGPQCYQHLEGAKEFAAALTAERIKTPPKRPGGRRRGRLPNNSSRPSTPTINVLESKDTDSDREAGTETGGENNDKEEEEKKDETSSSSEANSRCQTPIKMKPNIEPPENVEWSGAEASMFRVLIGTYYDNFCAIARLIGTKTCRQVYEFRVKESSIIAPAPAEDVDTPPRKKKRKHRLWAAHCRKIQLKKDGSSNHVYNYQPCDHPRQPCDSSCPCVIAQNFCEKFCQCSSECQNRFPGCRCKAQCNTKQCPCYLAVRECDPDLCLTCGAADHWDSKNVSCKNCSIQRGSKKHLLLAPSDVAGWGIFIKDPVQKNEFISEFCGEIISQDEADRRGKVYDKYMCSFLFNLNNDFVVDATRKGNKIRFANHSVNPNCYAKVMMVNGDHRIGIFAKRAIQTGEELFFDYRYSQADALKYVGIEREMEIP
Chain of EZH2 Y641F mutant (PRC2 enzyme) (O75530 whole entry partner): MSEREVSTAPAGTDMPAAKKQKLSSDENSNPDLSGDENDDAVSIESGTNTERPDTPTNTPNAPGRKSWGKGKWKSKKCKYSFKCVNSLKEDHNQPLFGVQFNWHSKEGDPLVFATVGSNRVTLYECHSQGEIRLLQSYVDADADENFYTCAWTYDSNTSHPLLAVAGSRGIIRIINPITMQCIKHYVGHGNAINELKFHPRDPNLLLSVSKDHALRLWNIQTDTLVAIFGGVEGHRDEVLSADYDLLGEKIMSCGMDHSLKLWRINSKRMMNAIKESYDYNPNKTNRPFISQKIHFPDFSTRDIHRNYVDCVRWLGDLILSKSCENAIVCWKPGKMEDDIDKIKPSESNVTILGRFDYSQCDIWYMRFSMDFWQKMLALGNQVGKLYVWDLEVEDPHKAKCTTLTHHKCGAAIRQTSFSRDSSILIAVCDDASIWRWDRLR
Chain of EZH2 Y641F mutant (PRC2 enzyme) (Q15022 whole entry partner): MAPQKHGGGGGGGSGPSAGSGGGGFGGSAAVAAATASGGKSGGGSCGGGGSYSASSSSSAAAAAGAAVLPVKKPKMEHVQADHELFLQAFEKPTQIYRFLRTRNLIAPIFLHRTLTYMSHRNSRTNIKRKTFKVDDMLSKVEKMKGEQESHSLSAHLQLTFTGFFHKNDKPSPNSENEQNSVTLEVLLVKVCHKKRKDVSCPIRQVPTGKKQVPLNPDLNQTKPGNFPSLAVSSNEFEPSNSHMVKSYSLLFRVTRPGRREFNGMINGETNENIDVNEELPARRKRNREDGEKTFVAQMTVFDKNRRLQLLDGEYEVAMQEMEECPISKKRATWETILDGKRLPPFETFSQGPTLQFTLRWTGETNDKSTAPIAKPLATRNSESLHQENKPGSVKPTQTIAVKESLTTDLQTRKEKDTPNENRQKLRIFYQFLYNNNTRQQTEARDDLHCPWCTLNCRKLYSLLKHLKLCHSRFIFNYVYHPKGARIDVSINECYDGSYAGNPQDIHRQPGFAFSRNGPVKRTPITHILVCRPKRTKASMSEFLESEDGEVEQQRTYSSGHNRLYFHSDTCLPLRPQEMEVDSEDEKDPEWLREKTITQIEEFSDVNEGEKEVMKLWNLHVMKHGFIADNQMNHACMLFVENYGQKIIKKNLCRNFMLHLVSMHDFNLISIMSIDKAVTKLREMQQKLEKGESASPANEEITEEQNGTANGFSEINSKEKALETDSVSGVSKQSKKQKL
Chain of EZH2 Y641F mutant (PRC2 enzyme) (Q09028 whole entry partner): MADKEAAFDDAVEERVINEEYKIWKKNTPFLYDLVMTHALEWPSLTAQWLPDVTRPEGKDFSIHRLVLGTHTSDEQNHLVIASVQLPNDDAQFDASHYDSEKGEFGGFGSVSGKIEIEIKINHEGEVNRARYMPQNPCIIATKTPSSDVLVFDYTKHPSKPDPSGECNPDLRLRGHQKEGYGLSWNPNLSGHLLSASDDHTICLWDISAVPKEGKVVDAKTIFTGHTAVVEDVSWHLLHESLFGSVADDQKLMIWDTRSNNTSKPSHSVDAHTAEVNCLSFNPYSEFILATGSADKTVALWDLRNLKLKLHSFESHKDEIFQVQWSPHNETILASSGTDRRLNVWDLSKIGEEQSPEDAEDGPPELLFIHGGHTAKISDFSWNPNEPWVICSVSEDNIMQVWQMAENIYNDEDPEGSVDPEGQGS
Method: as §1, §2

[3] = test system: H3K27me3 in WSU-DLCL2 cells; test: WSU-DLCL2 methylation assay (H3K27me3 ELISA); type: cell-based, human; conditions: H3K27me3 normalised to total H3
From the text: WSU-DLCL2 Methylation Assay
WSU-DLCL2 suspension cells were purchased from DSMZ (German Collection of Microorganisms and Cell Cultures, Braunschweig, Germany). RPMI/Glutamax Medium, Penicillin-Streptomycin, Heat Inactivated Fetal Bovine Serum, and D-PBS were purchased from Life Technologies, Grand Island, N.Y., USA. Extraction Buffer and Neutralization Buffer (5×) were purchased from Active Motif, Carlsbad, Calif., USA. Rabbit anti-Histone H3 antibody was purchased from Abcam, Cambridge, Mass., USA. Rabbit anti-H3K27me3 and HRP-conjugated anti-rabbit-IgG were purchased from Cell Signaling Technology, Danvers, Mass., USA. TMB “Super Sensitive” substrate was sourced from BioFX Laboratories, Owings Mills, Md., USA. IgG-free Bovine Serum Albumin was purchased from Jackson ImmunoResearch, West Grove, Pa., USA. PBS with Tween (10×PBST) was purchased from KPL, Gaithersburg, Md., USA. Sulfuric Acid was purchased from Ricca Chemical, Arlington, Tex., USA. Immulon ELISA plates were purchased from Thermo, Rochester, N.Y., USA. V-bottom cell culture plates were purchased from Corning Inc., Corning, N.Y., USA. V-bottom polypropylene plates were purchased from Greiner Bio-One, Monroe, N.C., USA.
WSU-DLCL2 suspension cells were maintained in growth medium (RPMI 1640 supplemented with 10% v/v heat inactivated fetal bovine serum and 100 units/mL penicillin-streptomycin) and cultured at 37° C. under 5% CO2. Under assay conditions, cells were incubated in Assay Medium (RPMI 1640 supplemented with 20% v/v heat inactivated fetal bovine serum and 100 units/mL penicillin-streptomycin) at 37° C. under 5% CO2 on a plate shaker.
WSU-DLCL2 cells were seeded in assay medium at a concentration of 50,000 cells per mL to a 96-well V-bottom cell culture plate with 200 μL per well. […] Plates were incubated on a titer-plate shaker at 37° C., 5% CO2 for 96 hours. After four days of incubation, plates were spun at 241×g for five minutes and medium was aspirated gently from each well of cell plate without disturbing cell pellet. Pellet was resuspended in: 200 μL DPBS and plates were spun again at 241×g for five minutes. The supernatant was aspirated and cold (4° C.) Extraction buffer (100 μL) was added per well. Plates were incubated at 4° C. on orbital shaker for two hours. Plates were spun at 3427×g×10 minutes. Supernatant (80 μL per well) was transferred to its respective well in 96 well V-bottom polypropylene plate. Neutralization Buffer 5× (20 μL per well) was added to V-bottom polypropylene plate containing supernatant. V-bottom polypropylene plates containing crude histone preparation (CHP) were incubated on orbital shaker×five minutes. Crude Histone Preparations were added (2 μL per well) to each respective well into duplicate 96 well ELISA plates containing 100 μL Coating Buffer (1×PBS+BSA 0.05% w/v). Plates were sealed and incubated overnight at 4° C. The following day, plates were washed three times with 300 μL per well 1×PBST. […] For H3K27me3 detection, 100 μL of HRP conjugated anti-rabbit IgG antibody diluted to 1:4000 in ELISA diluent was added per well. Plates were incubated at room temperature for 90 minutes. […] TMB substrate 100 μL was added per well. Histone H3 plates were incubated for five minutes at room temperature. H3K27me3 plates were incubated for 10 minutes at room temperature. The reaction was stopped with sulfuric acid 1N (100 μL per well). Absorbance for each plate was read at 450 nm.
Each plate included eight control wells DMSO only treatment (Minimum Inhibition) as well as eight control wells for maximum inhibition (Background wells).
The average of the ratio values for each control type was calculated and used to determine the percent inhibition for each test well in the plate. Test compound was serially diluted three-fold in DMSO for a total of ten test concentrations, beginning at 25 μM.

[4] = Homo sapiens, WSUDLCL2, 96 hours incubation

Chain of wild-type EZH2 (PRC2 enzyme) (Q15910 whole entry): as the sequence (Q15910 whole entry Y641F) above, with F641Y counted along it
Chain of wild-type EZH2 (PRC2 enzyme) (O75530 whole entry partner): as the sequence (O75530 whole entry partner) above
Chain of wild-type EZH2 (PRC2 enzyme) (Q15022 whole entry partner): as the sequence (Q15022 whole entry partner) above
Chain of wild-type EZH2 (PRC2 enzyme) (Q09028 whole entry partner): as the sequence (Q09028 whole entry partner) above

Row | Molecule | IC50 [1] [nM] | IC50 (WSU-DLCL2 cells) [nM] | IC50 [2] [nM] | IC50 [3, 4] [nM] | IC50 ([3]; 96 hours incubation) [nM]
1 | CCN(c1cc(-c2ccc(OCCOC)cc2)cc(C(=O)NCc2c(C)n(C)[nH]c2=O)c1C)[C@H]1CC[C@H](N(C)CCOC)CC1 [Compound 60, N-((1,5-dimethyl-3-oxo-2,3-dihydro-1H-pyrazol-4-yl)methyl)-5-(ethyl((trans)-4-((2-methoxyethyl)(methyl)amino)cyclohexyl)amino)-4′-(2-methoxyethoxy)-4-methyl-[1,1′-biphenyl]-3-carboxamide] | 2110 | 13500 | 695 |  | 
2 | CCCN(c1cc(-c2ccc(OCCOC)cc2)cc(C(=O)NCc2c(C)n(C)[nH]c2=O)c1C)[C@H]1CC[C@H](N(C)C)CC1 [Compound 58, N-((1,5-dimethyl-3-oxo-2,3-dihydro-1H-pyrazol-4-yl)methyl)-5-(((trans)-4-(dimethylamino)cyclohexyl)(propyl)amino)-4′-(2-methoxyethoxy)-4-methyl-[1,1′-biphenyl]-3-carboxamide] | 1540 | 14300 | 342 |  | 
3 | CCN(c1cc(Cl)cc(C(=O)NCc2c(C)n(C)[nH]c2=O)c1C)[C@H]1CC[C@H](N(C)CCOC)CC1 [Compound 55, 5-chloro-N-((1,5-dimethyl-3-oxo-2,3-dihydro-1H-pyrazol-4-yl)methyl)-3-(ethyl((trans)-4-((2-methoxyethyl)(methyl)amino)cyclohexyl)amino)-2-methylbenzamide] | 695 |  | 418 | 30600 | 
4 | 5-chloro-3-(ethyl((trans)-4-((4-methoxybenzyl)(methyl)amino) cyclohexyl)amino)-2-methyl-N-((1-methyl-3-oxo-5-(piperidin-1-yl)-2,3-dihydro-1H-pyrazol-4-yl)methyl)benzamide [Compound 84] | 1440 |  | 1220 |  | 16700
5 | CCN(c1cc(Cl)cc(C(=O)NCc2c(CCN(C)C)cc3n(c2=O)NCC3)c1C)[C@H]1CC[C@H](N(C)C)CC1 [Compound 1, 5-chloro-3-(((trans)-4-(dimethylamino)cyclohexyl)(ethyl)amino)-N-((5-(2-(dimethylamino)ethyl)-7-oxo-1,2,3,7-tetrahydropyrazolo[1,5-a]pyridin-6-yl)methyl)-2-methylbenzamide] |  | 850 |  |  | 
6 | CCN(c1cc(Cl)cc(C(=O)NCc2c(C)[nH]n(C)c2=O)c1C)[C@@H]1COC[C@H]1O (relative stereo) [Compound 41, 5-chloro-N-((2,5-dimethyl-3-oxo-2,3-dihydro-1H-pyrazol-4-yl)methyl)-3-(ethyl((trans)-4-hydroxytetrahydrofuran-3-yl)amino)-2-methylbenzamide] | 37200 |  | 26200 | > 50000 | 
7 | CCN(c1cc(-c2ccc(OCCOC)cc2)cc(C(=O)NCc2c(C)[nH][nH]c2=O)c1C)[C@H]1CC[C@H](N(C)C)CC1 [Compound 30, 5-(((trans)-4-(dimethylamino)cyclohexyl)(ethyl)amino)-4′-(2-methoxyethoxy)-4-methyl-N-((5-methyl-3-oxo-2,3-dihydro-1H-pyrazol-4-yl)methyl)-[1,1′-biphenyl]-3-carboxamide] | 24 |  | 7 | 29000 | 
8 | CCN(c1cc(Cl)cc(C(=O)NCc2c(C)nn(C)c2OC)c1C)[C@H]1CC[C@H](N(C)C)CC1 [Compound 91, 5-chloro-N-((5-methoxy-1,3-dimethyl-1H-pyrazol-4-yl)methyl)-3-(((trans)-4-(dimethylamino)cyclohexyl)(ethyl)amino)-2-methylbenzamide] | 7450 |  | 1170 | > 50000 | 
9 | CCN(c1cc(Cl)cc(C(=O)NCc2c(C)[nH]n(C)c2=O)c1C)[C@@H]1COC[C@H]1OC (relative stereo) [Compound 42, 5-chloro-N-((2,5-dimethyl-3-oxo-2,3-dihydro-1H-pyrazol-4-yl)methyl)-3-(ethyl((trans)-4-methoxytetrahydrofuran-3-yl)amino)-2-methylbenzamide] | > 50000 | > 20000 |  |  | 

Source: patent publication US10150764B2, “Substituted benzene compounds” (Epizyme, Inc., priority 2013, dated 2018)
